From ChEMBL document CHEMBL3588753, “Recent progress in the drug development of coumarin derivatives as potent antituberculosis agents” (2015)
Values after ≈ are worked out from the molar mass of the structure shown.

What was measured:
Format in all cases: functional
[1] = tested on: Mycobacterium tuberculosis; test: Antimycobacterial activity against Mycobacterium tuberculosis H37Rv assessed as growth inhibition at 128 ug/ml by low-oxygen recovery assay
[2] = tested on: Mycobacterium tuberculosis; test: Antimycobacterial activity against Mycobacterium tuberculosis H37Rv assessed as growth inhibition at 128 ug/ml by Alamar Blue staining-based broth microdilution assay
[3] = tested on: Mycobacterium tuberculosis; test: Antimycobacterial activity against Mycobacterium tuberculosis H37Rv assessed as growth inhibition by Alamar Blue staining-based broth microdilution assay; set-up: inhibition (INH): concentration or dose not given beside the values; conditions: for MIC: Mycobacterium tuberculosis, H37Rv
[4] = tested on: Mycobacterium tuberculosis; test: Antimycobacterial activity against Mycobacterium tuberculosis H37Rv assessed as growth inhibition at 6.25 ug/ml by Alamar Blue staining-based broth microdilution assay
[5] = tested on: Mycolicibacterium smegmatis; test: Antimicrobial activity against Mycobacterium smegmatis
[6] = tested on: Mycolicibacterium phlei; test: Antimycobacterial activity against Mycobacterium phlei
[7] = tested on: Mycobacterium tuberculosis; test: Ratio of CPFX IC50 to compound IC50 Mycobacterium tuberculosis H37Rv assessed as growth inhibition
[8] = tested on: Mycobacterium tuberculosis; test: Ratio of 8-OCH3 IC50 to compound IC50 Mycobacterium tuberculosis H37Rv assessed as growth inhibition
[9] = tested on: Mycobacterium tuberculosis; test: Ratio of RIF IC50 to compound IC50 Mycobacterium tuberculosis H37Rv assessed as growth inhibition
[10] = tested on: Mycobacterium tuberculosis; test: Ratio of GTFX IC50 to compound IC50 Mycobacterium tuberculosis H37Rv assessed as growth inhibition
[11] = tested on: Mycobacterium tuberculosis; test: Ratio of MXFX IC50 to compound IC50 Mycobacterium tuberculosis H37Rv assessed as growth inhibition
[12] = tested on: Mycolicibacterium fortuitum; test: Antimycobacterial activity against Mycobacterium fortuitum

Structure (SMILES): O=C1Nc2c(c(=O)oc3ccccc23)C(c2ccccc2O)N1 (centres undefined)
- inhibition at 128 µg/mL [1]: 37%
- inhibition at 128 µg/mL [2]: 45%

Structure (SMILES): Cc1cc(=O)oc2cc(OCc3cn(Cc4cc(=O)oc5cc(Cl)ccc45)nn3)ccc12
- MIC [3]: 6.25 µg/mL (≈ 13.9 µM)

Structure (SMILES): Cc1cc(=O)oc2cc(OCc3cn(Cc4cc(=O)oc5ccc6ccccc6c45)nn3)ccc12
- MIC [3]: 6.25 µg/mL (≈ 13.4 µM)

Structure (SMILES): Cc1cc2oc(=O)cc(Nc3ccc4ccccc4c3)c2cc1Cl
- inhibition at 6.25 µg/mL [4]: 100%

Structure (SMILES): Cc1ccc(O)c(C(=O)c2ccc(-c3cc4cc(Br)ccc4oc3=O)nc2)c1
- MIC [3]: 100 µg/mL (≈ 229 µM)

Structure (SMILES): O=c1oc2ccccc2c(O)c1C1=Nc2ccccc2SC(c2c[nH]c3ccccc23)C1 (centres undefined)
- inhibition at 6.25 µg/mL [4]: 80%

Structure (SMILES): O=C(CN1CCN(c2cc3c(cc2F)c(=O)c(C(=O)O)cn3C2CC2)CC1)c1cc2ccc(O)cc2oc1=O
- MIC [5]: 3.12 µg/mL (≈ 5.85 µM)
- MIC [3]: 0.5 µg/mL (≈ 0.937 µM)

Structure (SMILES): COc1cc2ccc(=O)oc2cc1O [SCOPOLETIN]
- MIC [3]: 42.1 µg/mL (≈ 219 µM)

Structure (SMILES): N#Cc1c(/C=C/c2cccc(-c3ccccc3)c2)c2cc(Cl)ccc2oc1=O
- inhibition (INH) [3]: 72%

Structure (SMILES): O=C(CSc1nnc(-c2cc3ccccc3oc2=O)o1)Nc1nc2ccc(Br)cc2s1
- inhibition (INH) [3]: 99%
- MIC [3]: 12.5 µg/mL (≈ 24.3 µM)

Structure (SMILES): C/C(=C\CC/C(C)=C/CC/C(C)=C/Cc1c(O)c2ccccc2oc1=O)CO
- MIC [6]: 16 µg/mL (≈ 41.8 µM)
- MIC [5]: 16 µg/mL (≈ 41.8 µM)

Structure (SMILES): Cc1cc(=O)oc2cc(OCc3cn(Cc4cc(=O)oc5ccc(Cl)cc45)nn3)ccc12
- MIC [3]: 6.25 µg/mL (≈ 13.9 µM)

Structure (SMILES): C=CC(C)(C)c1c(O)c2c(c3ccc(=O)oc13)OC(C)(C)C=C2
- MIC [3]: 100 µg/mL (≈ 320 µM)

Structure (SMILES): CC(=O)OC/C(C)=C/CC/C(C)=C/CC/C(C)=C/Cc1c(O)c2ccccc2oc1=O
- MIC [6]: 8 µg/mL (≈ 18.8 µM)
- MIC [5]: 8 µg/mL (≈ 18.8 µM)

Structure (SMILES): O=c1oc2ccccc2c(O)c1C1=Nc2ccccc2SC(c2ccc([N+](=O)[O-])cc2)C1 (centres undefined)
- inhibition at 6.25 µg/mL [4]: 93%

Structure (SMILES): O=c1ccc2c(O)c3ccoc3cc2o1 [BERGAPTOL]
- MIC [3]: 100 µg/mL (≈ 495 µM)

Structure (SMILES): O=C(c1ccncc1)n1nc(-c2ccc(F)cc2)cc1-c1cc2ccccc2oc1=O
- inhibition (INH) [3]: 80.09%
- MIC [3]: 0.625 µg/mL (≈ 1.52 µM)

Structure (SMILES): COc1cc2oc(=O)ccc2cc1[C@H]1OC(=O)[C@]2(C)O[C@H]12
- MIC [3]: 50 µg/mL (≈ 173 µM)

Structure (SMILES): COc1ccc2cc(C(=O)CN3CCN(c4c(F)cc5c(=O)c(C(=O)O)cn(C6CC6)c5c4OC)CC3)c(=O)oc2c1
- MIC [5]: 6.25 µg/mL (≈ 10.8 µM)
- MIC [3]: 0.25 µg/mL (≈ 0.433 µM)
- Ratio IC50 [7]: 2
- Ratio IC50 [8]: 2
- Ratio IC50 [9]: 2
- Ratio IC50 [10]: 2
- Ratio IC50 [11]: 2

Structure (SMILES): COc1c2c(cc3oc(=O)c(-c4ccc(O)cc4)c(O)c13)OC(C)(C)C=C2
- MIC [5]: 18 µg/mL (≈ 49.1 µM)

Structure (SMILES): O=C(Cc1cc(=O)oc2cc(O)ccc12)N/N=C/c1cccc([N+](=O)[O-])c1
- inhibition (INH) [3]: 93%

Structure (SMILES): O=c1oc2ccccc2c(O)c1C1=Nc2ccccc2SC(c2ccccc2O)C1 (centres undefined)
- inhibition at 6.25 µg/mL [4]: 94%

Structure (SMILES): CC(C)=CCC/C(C)=C/CC/C(C)=C/Cc1c(O)c2ccccc2oc1=O
- MIC [5]: 0.5 µg/mL (≈ 1.36 µM)
- MIC [12]: 2 µg/mL (≈ 5.46 µM)

Structure (SMILES): N#Cc1c(/C=C/c2c3ccccc3cc3ccccc23)c2cc(Cl)ccc2oc1=O
- inhibition (INH) [3]: 81%

Structure (SMILES): O=C(N/N=C/c1cccc(O)c1)c1cc2ccccc2oc1=O
- MIC [3]: 50 µg/mL (≈ 162 µM)

Structure (SMILES): Cc1ccc(O)c(C(=O)c2ccc(-c3cc4ccccc4oc3=O)nc2)c1
- MIC [3]: 100 µg/mL (≈ 280 µM)

Structure (SMILES): Cc1ccc(C)c2c(CC(=O)N/N=C/c3ccccc3[N+](=O)[O-])cc(=O)oc12
- inhibition (INH) [3]: 65%

Structure (SMILES): COc1cccc2cc(-c3ccc(C(=O)c4cc(C)ccc4O)cn3)c(=O)oc12
- MIC [3]: 62.5 µg/mL (≈ 161 µM)

Structure (SMILES): C/C(=C\CC/C(C)=C/Cc1c(O)c2ccccc2oc1=O)CC/C=C(\C)COC(=O)c1ccccc1
- MIC [6]: 2 µg/mL (≈ 4.11 µM)
- MIC [5]: 2 µg/mL (≈ 4.11 µM)

Structure (SMILES): C=CC(C)(C)c1c2c(c(OC)c3ccc(=O)oc13)C=CC(C)(C)O2 [DENTATIN]
- MIC [3]: 50 µg/mL (≈ 153 µM)

Structure (SMILES): COc1ccc(-c2cc(-c3ccc(Nc4cc(=O)oc5ccccc45)cc3)nc(N)c2C#N)cc1OC
- inhibition (INH) [3]: 99%
- MIC [3]: 12.5 µg/mL (≈ 25.5 µM)

Structure (SMILES): O=C(CSc1nnc(-c2cc3ccccc3oc2=O)o1)Nc1ccc(I)cc1
- inhibition (INH) [3]: 99%
- MIC [3]: 12.5 µg/mL (≈ 24.7 µM)

Structure (SMILES): O=c1cc(Nc2ccc3ccccc3c2)c2ccccc2o1
- inhibition at 6.25 µg/mL [4]: 81%

Structure (SMILES): COc1cc(/C=C/c2c(C#N)c(=O)oc3ccc(Cl)cc23)cc(OC)c1OC
- inhibition (INH) [3]: 87%

Structure (SMILES): O=C(N/N=C/c1ccc([N+](=O)[O-])cc1)c1cc2ccccc2oc1=O
- MIC [3]: 100 µg/mL (≈ 296 µM)

Structure (SMILES): C=CC(C)(C)c1c2c(c(O)c3ccc(=O)oc13)C(=O)CC(C)(C)O2
- MIC [3]: 200 µg/mL (≈ 609 µM)

Structure (SMILES): Cc1ccc(C)c2c(CC(=O)N/N=C/c3ccccc3)cc(=O)oc12
- inhibition (INH) [3]: 70%

Structure (SMILES): COc1ccc(C2NC(=O)Nc3c2c(=O)oc2ccc(C)cc32)cc1 (centres undefined)
- inhibition at 128 µg/mL [1]: 62%
- inhibition at 128 µg/mL [2]: 58%

Structure (SMILES): CN(C)c1ccc(/C=C/c2c(C#N)c(=O)oc3ccc(Cl)cc23)cc1
- inhibition (INH) [3]: 79%

Structure (SMILES): COc1ccc(C2NC(=O)Nc3c2c(=O)oc2ccc(C)cc32)cc1OC (centres undefined)
- inhibition at 128 µg/mL [1]: 35%
- inhibition at 128 µg/mL [2]: 55%

Structure (SMILES): COc1ccc2ccc(=O)oc2c1C(CO)=C(C)C
- MIC [3]: 50 µg/mL (≈ 192 µM)
